# Results from US20160340647A1, “COMPOSITIONS AND METHODS FOR INDUCING DIFFERENTIATION OF STEM CELLS” (BIODEMAK LLC, priority 2014, published 2016).
# Tests used:
# [1] = test system: GSCs obtained from the U87 cell line; assay: Cell differentiation of GSCs (phase contrast morphology, western blot); assay type: cell-based; conditions: for cell differentiation of GSCs (FIG. 6): treatment 2, two days
# Procedure: (§1) Sulindac was obtained from Sigma.
# (§2) Imaging and Immunocytochemistry: • Phase contrast pictures were obtained using an AmScope camera attached to a Nikon TMS microscope. Indirect immunocytochemistry (ICC) was performed as described previously. Briefly, cells were mechanically disaggregated and plated on poly-L-Lysine (PLL). For ICC the following markers were used: Ki67 for proliferative cells; nestin for NSC; beta-tubulin III for neurons; GFAP for astrocytes and 01 for oligodendrocytes. Epifluorescence microscopes (Leica and Nikon) were used for pictures, counting and visualization of the immunocytochemistry. The total number of neurons was quantified by counting a minimum of 15 fields per treatment in triplicates or quadruplicates and normalized vs. non-treated cultures.
# [2] = test system: GSCs obtained from the U87 cell line; assay: Cell viability of GSCs after oxidizing agents (CellTiter 96 Aqueous One); conditions: for GSC killing in combination with oxidizing agents (FIG. 7): treatment 2, 250 uM epimer, 200 uM TBHP
# RTP801 levels in GSCs = assay: RTP801 levels in GSCs
# NSCs [3] = assay: Neuronal differentiation of NSCs (beta-tubulin III immunocytochemistry, number of neurons vs control); assay type: cell-based, mice; conditions: treatment 1: floating NSCs 24 hours with 500 microMolar sulindac, plated on PLL another 24 hours
# Procedure: (§3) NSCs were obtained from the hippocampi of PO BL6 mice and cultured in DMEM/F12 medium (Gibco) containing B27 (Gibco), epidermal growth factor (EGF, 20 ng/ml. Invitrogen) and basic fibroblast growth factor (bFGF 10 ng/ml. Peprotech). To induce cell differentiation, NSC where plated on poli-L-lysine (Sigma) were NSC spontaneously differentiate into neurons, astrocytes and oligodendrocytes as previously described (Lopez-Toledano M A & Shelanski M L (2004) J. Neurosci. 24(23):5439-5444).
# as §1, §2
# [4] = test system: RTP801 levels in U87 cells; assay: RTP801 levels in U87 cells; conditions: U87 cells treated 72 hours at the same day of plating
# NSCs [5] = assay: Cell viability of NSCs after TBHP (CellTiter 96 Aqueous One); assay type: cell-based, mice; conditions: TBHP two hours
# Procedure: as §3, §1
# (§4) Background absorbance was subtracted from each sample.
# astrocytes = assay: Cell viability of astrocytes after TBHP (CellTiter 96 Aqueous One); assay type: cell-based, mice; conditions: astrocytes plated seven days, 48 hours 500 μM sulindac
# Excerpt: To obtain a pure culture of astrocytes, NSCs were differentiated in DMEM+10% FBS (both of Gibco) for seven days, trypsinized and re-plated in a new flask with the same medium. Under these circumstances, close to 100% of the cells become astrocytes (GFAP^+ cells).
# as §1, §4
# [6] = 3 mM As2O3, 30 mM DCA or 400 nM DOX
structure (smiles),measurement,setting,value
CC(C)Cc1ccc(C(C)C(=O)O)cc1 (centres unmarked) [ibuprofen],cell differentiation of GSCs (FIG. 6),[1]; 400 uM,no significant differentiation
CC1=C(CC(=O)O)c2cc(F)ccc2/C1=C\c1ccc([S@@+](C)[O-])cc1 [sulindac R epimer],GSC killing in combination with oxidizing agents (FIG. 7),[2]; [6],enhanced killing
CC1=C(CC(=O)O)c2cc(F)ccc2/C1=C\c1ccc([S@+](C)[O-])cc1 [sulindac S-epimer],GSC killing in combination with oxidizing agents (FIG. 7),[2]; [6],enhanced killing
CC1=C(CC(=O)O)c2cc(F)ccc2/C1=C\c1ccc(S(C)(=O)=O)cc1 [sulindac sulfone],cell differentiation of GSCs (FIG. 6),[1]; 25 uM,lower activity
CC1=C(CC(=O)O)c2cc(F)ccc2/C1=C\c1ccc([S+](C)[O-])cc1 (centres unmarked) [sulindac],GSC sensitivity to different oxidative agents (FIG. 7),"[2]; 48 hours, 500 uM sulindac, TBHP, 3 mM As2O3, 30 mM DCA or 400 nM DOX",increase GSC sensitivity
same,effect on TBHP-induced cell death of floating undifferentiated GSCs,"[2]; treatment 1, 500 μM sulindac 24 hours, TBHP two hours",no effect
same,effect on TBHP-induced cell death of plated GSCs,"[2]; treatment 2, 500 μM sulindac, TBHP two hours",increased TBHP-induced cell death
same,change of RTP801 levels,"RTP801 levels in GSCs; GSCs at 0+72 (both floating and plated), 0+3 and 0+6",increase
same,change of RTP801 levels,"RTP801 levels in GSCs; GSCs, sulindac added at the 3rd dpp for 3 days",decrease in RTP801
same,number of neurons (beta-tubulin III+) vs vehicle,NSCs [3],significant increase in the number of neurons
same,"neuronal differentiation of GSC by Western blot (nestin, DCX, actin)",[1]; 500 microMolar sulindac,higher neuronal differentiation
same,cell differentiation of GSCs (morphology) vs vehicle,"[1]; treatment 1: floating GSCs 24 hours with 500 microMolar sulindac, plated on PLL another 24 hours",clear differentiation effect
same,cell differentiation of GSCs (FIG. 6),[1]; 500 uM,lower activity
same,change of RTP801 levels,[4],reduction in RTP801 levels
same,effect on TBHP-induced death of NSCs,"NSCs [5]; treatment 1, floating NSCs, 500 μM sulindac",protected floating NSCs from TBHP-induced death
same,effect on TBHP-induced cell death of NSCs,"NSCs [5]; treatment 2, plated NSCs, 500 μM sulindac 48 hours",complete protection against TBHP-induced cell death
same,effect on TBHP-induced cell death of astrocytes,astrocytes,very similar protection
